In brackets after ≈: the same amount, converted by molar mass. Activity calls are given as the source filed them. The calls are words filed in the database; no cut-off is given here.
Key:
Lactuca sativa [1] = assay: Phytotoxicity in naked Lactuca sativa (lettuce) assessed as change in visual quality after compound application through two-tier reduced pressure fumigation at 30 mmHg for 0.5 hr and then 760 mmHg for 1.5 hr at 23 +/- 1 degC after 2 hr; type: organism-based; details: in vivo
Myzus persicae [2] = assay: Insecticidal activity against Myzus persicae (green peach aphid) placed under third leaf of naked Iceburg lettuce heads and after compound application for 2 hr through two-tier reduced pressure fumigation at 30 mmHg for 0.5 hr and then 760 mmHg for 1.5 hr at 23 +/- 1 degC measured after 24 hr; type: functional; details: for LC50: Myzus persicae, read-out: LD50 (the source's name)
Tetranychus urticae = assay: Insecticidal activity against Tetranychus urticae (two-spotted spider mite); type: functional, organism-based
Brevicoryne brassicae = assay: Insecticidal activity against Brevicoryne brassicae (cabbage aphids); type: functional, organism-based
[3] = system: Frankliniella occidentalis; assay: Insecticidal activity against Frankliniella occidentalis (western flower thrips); type: functional, organism-based
Bemisia = assay: Insecticidal activity against Bemisia sp.; type: functional, organism-based
Pseudococcus affinis = assay: Insecticidal activity against Pseudococcus affinis; type: functional, organism-based
Pseudococcus viburni = assay: Insecticidal activity against Pseudococcus viburni; type: functional, organism-based
Lactuca sativa [4] = assay: Phytotoxicity in naked Lactuca sativa (lettuce) assessed as residual aldehyde odor after compound application through two-tier reduced pressure fumigation at 30 mmHg for 0.5 hr and then 760 mmHg for 1.5 hr at 23 +/- 1 degC after 2 hr; type: organism-based; details: in vivo
Myzus persicae [5] = assay: Potentiation factor, ratio of LD50 for Myzus persicae (green peach aphid) applied through atmospheric pressure fumigation at 760 mmHg for 2 hr at 23 +/- 1 degC to LD50 for Myzus persicae (green peach aphid) applied through two-tier reduced pressure fumigation at 30 mmHg for 0.5 hr and then 760 mmHg for 1.5 hr at 23 +/- 1 degC; type: functional
Myzus persicae [6] = assay: Insecticidal activity against Myzus persicae (green peach aphid) applied through two-tier reduced pressure fumigation at 30 mmHg for 0.5 hr and then 760 mmHg for 1.5 hr at 23 +/- 1 degC; type: functional
Myzus persicae [7] = assay: Insecticidal activity against Myzus persicae (green peach aphid) applied through atmospheric pressure fumigation at 760 mmHg for 2 hr at 23 +/- 1 degC; type: functional; details: read-out: LD50 (the source's name)
Persea americana = assay: Phytotoxicity in Persea americana (avocado) assessed as induction of visual damage after compound application for 1 hr through two-tier reduced pressure fumigation at 30 mmHg for 0.5 hr and then 760 mmHg for 1.5 hr at 23 +/- 1 degC; type: organism-based; details: in vivo
Citrus x paradisi = assay: Phytotoxicity in Citrus x paradisi (grape fruit) assessed as induction of visual damage after compound application for 1 hr through two-tier reduced pressure fumigation at 30 mmHg for 0.5 hr and then 760 mmHg for 1.5 hr at 23 +/- 1 degC; type: organism-based; details: in vivo
[8] = system: Brassica oleracea var. capitata; assay: Phytotoxicity in Brassica oleracea var. capitata (cabbage) assessed as induction of visual damage after compound application for 1 hr through two-tier reduced pressure fumigation at 30 mmHg for 0.5 hr and then 760 mmHg for 1.5 hr at 23 +/- 1 degC; type: organism-based; details: in vivo
Lactuca sativa [9] = assay: Phytotoxicity in wrapped Lactuca sativa (lettuce) assessed as induction of visual damage after compound application for 1 hr through two-tier reduced pressure fumigation at 30 mmHg for 0.5 hr and then 760 mmHg for 1.5 hr at 23 +/- 1 degC; type: organism-based; details: in vivo
[10] = system: Brassica oleracea var. italica; assay: Phytotoxicity in Brassica oleracea var. italica assessed as induction of visual damage after compound application for 1 hr through two-tier reduced pressure fumigation at 30 mmHg for 0.5 hr and then 760 mmHg for 1.5 hr at 23 +/- 1 degC; type: organism-based; details: in vivo
Vitis vinifera [11] = assay: (§1) Phytotoxicity in Vitis vinifera assessed as induction of olfactory damage after compound application for 1 hr through two-tier reduced pressure fumigation at 30 mmHg for 0.5 hr and then 760 mmHg for 1.5 hr at 23 +/- 1 degC; type: organism-based; details: in vivo
Vitis vinifera [12] = assay: as §1; type: organism-based; details: in vivo; remark: listed apart in the source
Malus domestica = assay: Phytotoxicity in Malus x domestica (apple) assessed as induction of olfactory damage after compound application for 1 hr through two-tier reduced pressure fumigation at 30 mmHg for 0.5 hr and then 760 mmHg for 1.5 hr at 23 +/- 1 degC; type: organism-based; details: in vivo
Phaseolus vulgaris = assay: PhytoToxicity in Phaseolus vulgaris (beans) assessed as induction of visual damage after compound application for 1 hr through two-tier reduced pressure fumigation at 30 mmHg for 0.5 hr and then 760 mmHg for 1.5 hr at 23 +/- 1 degC; type: organism-based; details: in vivo, other
Lactuca sativa [13] = assay: Phytotoxicity in naked Lactuca sativa (lettuce) assessed as induction of olfactory damage after compound application for 1 hr through two-tier reduced pressure fumigation at 30 mmHg for 0.5 hr and then 760 mmHg for 1.5 hr at 23 +/- 1 degC; type: organism-based; details: in vivo
Oryza sativa = assay: Phytotoxicity in Oryza sativa (rice) assessed as induction of visual damage after compound application for 1 hr through two-tier reduced pressure fumigation at 30 mmHg for 0.5 hr and then 760 mmHg for 1.5 hr at 23 +/- 1 degC; type: organism-based; details: in vivo
Citrus limon = assay: Phytotoxicity in Citrus limon (lemon) assessed as induction of olfactory damage after compound application for 1 hr through two-tier reduced pressure fumigation at 30 mmHg for 0.5 hr and then 760 mmHg for 1.5 hr at 23 +/- 1 degC; type: organism-based; details: citrus x limon, in vivo
Citrus sinensis = assay: Phytotoxicity in Citrus sinensis (orange) assessed as induction of olfactory damage after compound application for 1 hr through two-tier reduced pressure fumigation at 30 mmHg for 0.5 hr and then 760 mmHg for 1.5 hr at 23 +/- 1 degC; type: organism-based; details: in vivo
[14] = system: Brassica oleracea var. capitata; assay: Phytotoxicity in Brassica oleracea var. capitata (cabbage) after compound application for 1 hr through two-tier reduced pressure fumigation at 30 mmHg for 0.5 hr and then 760 mmHg for 1.5 hr at 23 +/- 1 degC; type: organism-based; details: in vivo
[15] = system: Brassica oleracea var. italica; assay: Phytotoxicity in Brassica oleracea var. italica after compound application for 1 hr through two-tier reduced pressure fumigation at 30 mmHg for 0.5 hr and then 760 mmHg for 1.5 hr at 23 +/- 1 degC; type: organism-based; details: in vivo
Lactuca sativa [16] = assay: Phytotoxicity in naked Lactuca sativa (lettuce) after compound application for 1 hr through two-tier reduced pressure fumigation at 30 mmHg for 0.5 hr and then 760 mmHg for 1.5 hr at 23 +/- 1 degC; type: organism-based; details: in vivo
Myzus persicae [17] = assay: Insecticidal activity against Myzus persicae (green peach aphid) infested wrapped lettuce applied for 1 hr through two-tier reduced pressure fumigation at 30 mmHg for 0.5 hr and then 760 mmHg for 1.5 hr at 23 +/- 1 degC measured 24 hr; type: functional, organism-based
Myzus persicae [18] = assay: Insecticidal activity against Myzus persicae (green peach aphid) infested naked lettuce applied for 1 hr through two-tier reduced pressure fumigation at 30 mmHg for 0.5 hr and then 760 mmHg for 1.5 hr at 23 +/- 1 degC measured 24 hr; type: functional, organism-based

CC/C=C(\C)C=O [2-methyl-(E)-2-pentenal]
Activity (Lactuca sativa [1]): Toxic
LD90 (Myzus persicae [2]): 85.8 mg/L
LC50 (Myzus persicae [2]): 33.5 µg/mL (≈ 341 µM)
Activity (Tetranychus urticae): inactive
Activity (Brevicoryne brassicae): inactive
Activity [3]: Active
Activity (Bemisia): Active
Activity (Pseudococcus affinis): Active
Activity (Pseudococcus viburni): Active
Activity (Lactuca sativa [4]): Toxic

CCCCCCC=O [HEPTANAL]
Ratio (Myzus persicae [5]): 3
LC50 (Myzus persicae [6]; Myzus persicae, read-out: LD50 (the source's name)): 5 µg/mL (≈ 43.8 µM)
LC50 (Myzus persicae [7]): 15 µg/mL (≈ 131 µM)

CC(C)C=O [ISOBUTYRALDEHYDE]
CTP (Myzus persicae [6]): 9.2 mg/L.hr
Activity (Lactuca sativa [1]): Toxic
LD90 (Myzus persicae [2]): 224.1 mg/L
Activity (Tetranychus urticae): inactive
Activity (Brevicoryne brassicae): inactive
Activity [3]: Active
Activity (Bemisia): Active
Activity (Pseudococcus affinis): Active
Activity (Pseudococcus viburni): Active
Activity (Lactuca sativa [4]): Toxic

CC/C=C/C=O [PENTENAL]
Activity (Lactuca sativa [1]): Toxic
CTP (Myzus persicae [2]): 106 mg/L.hr
LD90 (Myzus persicae [2]): 25.8 mg/L
LC50 (Myzus persicae [2]): 13.1 µg/mL (≈ 156 µM)
Activity (Persea americana): Toxic
Activity (Citrus x paradisi): Toxic
Activity [8]: Toxic
Activity (Lactuca sativa [9]): Toxic
Activity [10]: Toxic
Activity (Vitis vinifera [11]): Non-toxic
Activity (Vitis vinifera [12]): Non-toxic
Activity (Malus domestica): Non-toxic
Activity (Tetranychus urticae): inactive
Activity (Brevicoryne brassicae): inactive
Activity [3]: Active
Activity (Bemisia): Active
Activity (Pseudococcus affinis): Active
Activity (Pseudococcus viburni): Active
Activity (Phaseolus vulgaris): Toxic
Activity (Lactuca sativa [13]): Toxic
Activity (Oryza sativa): Toxic
Activity (Lactuca sativa [4]): Toxic
Activity (Citrus limon): Non-toxic
Activity (Citrus sinensis): Non-toxic
Activity [14]: Toxic
Activity [15]: Toxic
Activity (Lactuca sativa [16]): Toxic
Activity (Myzus persicae [17]): Active
Activity (Myzus persicae [18]): Active

CCC/C=C/C=O
Activity (Lactuca sativa [1]): Toxic
LD90 (Myzus persicae [2]): 54.4 mg/L
LC50 (Myzus persicae [2]): 24.3 µg/mL (≈ 248 µM)
Activity (Tetranychus urticae): inactive
Activity (Brevicoryne brassicae): inactive
Activity [3]: Active
Activity (Bemisia): Active
Activity (Pseudococcus affinis): Active
Activity (Pseudococcus viburni): Active
Activity (Lactuca sativa [4]): Toxic

CCCC(C)C=O (configuration not stated) [2-METHYLPENTANAL]
Activity (Lactuca sativa [1]): Toxic
LD90 (Myzus persicae [2]): 54.2 mg/L
LC50 (Myzus persicae [2]): 39.9 µg/mL (≈ 398 µM)
Activity (Tetranychus urticae): inactive
Activity (Brevicoryne brassicae): inactive
Activity [3]: Active
Activity (Bemisia): Active
Activity (Pseudococcus affinis): Active
Activity (Pseudococcus viburni): Active
Activity (Lactuca sativa [4]): Toxic
